Data reported in patent US7655665B2, “Nitromethylene derivatives and their use” (East China University of Science and Technology, priority 2004, dated 2010).

Experiments:
Nilaparvata lugens = experiment: Insecticidal activity against Nilaparvata lugens (planthopper) by spraying; type: in vivo; conditions: 500 ppm; for mortality (%) (500 ppm) Nilaparvata-lugens: spraying 2 ml per tumbler, killed counted after 24 hours; for mortality (%) (500 ppm) Nilaparvata lugens: spraying 2 ml, counted after 24 hours
Description: (§1) Test on the insecticidal activity of Compound Nos. 1-227
Planthopper, which belongs to Homoptera and has a piercing-sucking mouthpart, is a common insect for agricultural plant. Nilaparvata lugens was tested by the way of spraying.
Test method: the test compound was exactly formulated into a solution having a certain concentration and clean water was used as a blank control. Each process was repeated for 3 tumblers (3 times). 2 ml of solution was sprayed uniformly to each tumbler by a mini manual sprayer. 10 Nilaparvata lugens were introduced to every sink 6 hours before spraying. Three series of experiments were conducted. The number of killed Nilaparvata lugens was counted after 24 hours to calculate the mortality.

Aphis craccivoral = experiment: Insecticidal activity against Aphis craccivoral by immersing (dipping aphids on bean sprout); type: in vivo; conditions: 23° C.
Description: as §1
Aphis, which belongs to Homoptera and has a piercing-sucking mouthpart, is a common insect for agricultural plant. Aphis craccivoral was tested by the way of immersing.
Test method: exactly weighed various samples were independently added to N,N-dimethylformamide to form a 10 g/L stock solution. The mixture was diluted with 0.2 mL/L aqueous Triton X-100 solution to a concentration of 500 ug/mL. After stably sucking on bean sprout, the adult aphis without wings together with bean sprout was dipped into 500 ug/mL dilution, taken out after 5 seconds, and the excess dilution was sucked out with bibulous paper and the adult aphis without wings was incubated in clean vessel at a constant temperature of 23° C. Each concentration was repeated for 3 times and the control group contained 0.2 mL/L aqueous Triton X-100 solution. The number of killed aphis was counted after 24 hours to calculate the mortality.

[1] = 500 ppm (500 ug/mL dilution), dipped 5 seconds, killed aphis counted after 24 hours
[2] = 500 ppm, immersing (dipped 5 seconds), counted after 24 hours

| Structure (SMILES) | mortality (%) (500 ppm) Nilaparvata-lugens (Nilaparvata lugens) | mortality (%) (500 ppm) Aphis (Aphis craccivoral; [1]) | mortality (%) (500 ppm) Nilaparvata lugens (Nilaparvata lugens) | mortality (%) (500 ppm) Aphis (Aphis craccivoral; [2]) |
| --- | --- | --- | --- | --- |
| O=[N+]([O-])C1=C2N(Cc3ccc(Cl)nc3)CCCN2C(=NCCCl)CC1 [Compound 204] | 78% | 46% |  |  |
| O=[N+]([O-])C1=C2N(Cc3cnc(Cl)s3)CCN2C(OS(=O)(=O)c2ccccc2)CC1 (stereo not drawn) [Compound 158] |  |  | 7% | 6% |
| CCCCSC1CCC([N+](=O)[O-])=C2N(Cc3ccc(Cl)nc3)CCN21 (stereo not drawn) [Compound 139] |  |  | 78% | 34% |
| COCCSC1CCC([N+](=O)[O-])=C2N(Cc3cnc(Cl)s3)CCN21 (stereo not drawn) [Compound 186] | 100% | 97% |  |  |
| CCCCOC1CCC([N+](=O)[O-])=C2N(CC3CCOC3)CCN21 (stereo not drawn) [Compound 53] |  |  | 12% | 9% |
| CCCOC1CCC([N+](=O)[O-])=C2N(Cc3ccc(Cl)nc3)CCCN21 (stereo not drawn) [Compound 76] |  |  | 100% | 100% |
| CC(C)(C)SC1CCC([N+](=O)[O-])=C2N(Cc3ccc(Cl)nc3)CCN21 (stereo not drawn) [Compound 142] |  |  | 88% | 67% |
| CCCCSC1CCC([N+](=O)[O-])=C2N(Cc3cnc(Cl)s3)CCN21 (stereo not drawn) [Compound 178] | 12% | 23% |  |  |
| O=C(OC1CCC([N+](=O)[O-])=C2N(Cc3ccc(Cl)nc3)CCN21)C(F)(F)F (stereo not drawn) [Compound 116] |  |  | 45% | 2% |
| CC(C)(C)OC1CCC([N+](=O)[O-])=C2N(Cc3cnc(Cl)s3)CCCN21 (stereo not drawn) [Compound 96] |  |  | 100% | 80% |
| O=[N+]([O-])C1=C2N(Cc3cnc(Cl)s3)CCCN2C(OCCCl)CC1 (stereo not drawn) [Compound 88] |  |  | 34% | 23% |
| O=C(OC1CCC([N+](=O)[O-])=C2N(Cc3cnc(Cl)s3)CCN21)c1cc(F)c(Cl)cc1Cl (stereo not drawn) [Compound 164] |  |  | 78% | 59% |
| O=[N+]([O-])C1=C2N(Cc3ccc(Cl)nc3)CCCN2C(OC(C(F)(F)F)C(F)(F)F)CC1 (stereo not drawn) [Compound 78] |  |  | 51% | 68% |
| O=[N+]([O-])C1=C2N(Cc3ccc(Cl)nc3)CCN2C(=NCCCl)CC1 [Compound 191] | 78% | 53% |  |  |
| O=[N+]([O-])C1=C2N(Cc3cnc(Cl)s3)CCN2C(SCC(F)(F)F)CC1 (stereo not drawn) [Compound 174] | 100% | 67% |  |  |
| CCCCCN=C1CCC([N+](=O)[O-])=C2N(Cc3ccc(Cl)nc3)CCN12 [Compound 195] | 78% | 46% |  |  |
| CCC(=O)OC1CCC([N+](=O)[O-])=C2N(Cc3ccc(Cl)nc3)CCN21 (stereo not drawn) [Compound 114] |  |  | 88% | 56% |
| CCN=C1CCC([N+](=O)[O-])=C2N(Cc3cnc(Cl)s3)CCN12 [Compound 214] | 90% | 55% |  |  |
| O=C(OC1CCC([N+](=O)[O-])=C2N(Cc3cnc(Cl)s3)CCN21)c1ccccc1 (stereo not drawn) [Compound 161] |  |  | 5% | 3% |
| CC(C)COC1CCC([N+](=O)[O-])=C2N(CC3CCOC3)CCN21 (stereo not drawn) [Compound 54] |  |  | 34% | 23% |
| CCCCCN=C1CCC([N+](=O)[O-])=C2N(Cc3cnc(Cl)s3)CCCN12 [Compound 226] | 57% | 22% |  |  |
| O=[N+]([O-])C1=C2N(Cc3ccc(Cl)nc3)CCN2C(OS(=O)(=O)C(F)(F)F)CC1 (stereo not drawn) [Compound 118] |  |  | 100% | 81% |
| CCCCCOC1CCC([N+](=O)[O-])=C2N(CC3CCOC3)CCN21 (stereo not drawn) [Compound 58] |  |  | 23% | 34% |
| N=C1CCC([N+](=O)[O-])=C2N(Cc3ccc(Cl)nc3)CCCN12 [Compound 201] | 55% | 54% |  |  |
| CCCCN=C1CCC([N+](=O)[O-])=C2N(Cc3ccc(Cl)nc3)CCCN12 [Compound 207] | 45% | 14% |  |  |
| CC(C)N=C1CCC([N+](=O)[O-])=C2N(Cc3ccc(Cl)nc3)CCCN12 [Compound 206] | 98% | 56% |  |  |

| Structure (SMILES) | mortality (%) (500 ppm) Nilaparvata-lugens (Nilaparvata lugens) | mortality (%) (500 ppm) Aphis (Aphis craccivoral; [1]) | mortality (%) (500 ppm) Nilaparvata lugens (Nilaparvata lugens) | mortality (%) (500 ppm) Aphis (Aphis craccivoral; [2]) |
| --- | --- | --- | --- | --- |
| CC(C)CCSC1CCC([N+](=O)[O-])=C2N(Cc3ccc(Cl)nc3)CCN21 (stereo not drawn) [Compound 145] |  |  | 78% | 67% |
| N=C1CCC([N+](=O)[O-])=C2N(Cc3cnc(Cl)s3)CCCN12 [Compound 220] | 56% | 16% |  |  |
| CC(C)(C)COC1CCC([N+](=O)[O-])=C2N(CC3CCOC3)CCN21 (stereo not drawn) [Compound 62] |  |  | 23% | 12% |
| O=C(OC1CCC([N+](=O)[O-])=C2N(Cc3cnc(Cl)s3)CCN21)C(Cl)(Cl)Cl (stereo not drawn) [Compound 154] |  |  | 100% | 93% |
| CCCCCN=C1CCC([N+](=O)[O-])=C2N(Cc3cnc(Cl)s3)CCN12 [Compound 218] | 67% | 45% |  |  |
| CCCCCSC1CCC([N+](=O)[O-])=C2N(Cc3ccc(Cl)nc3)CCN21 (stereo not drawn) [Compound 143] |  |  | 34% | 23% |
| O=[N+]([O-])C1=C2N(Cc3cnc(Cl)s3)CCN2C(OS(=O)(=O)C(F)(F)F)CC1 (stereo not drawn) [Compound 157] |  |  | 100% | 56% |
| CCN=C1CCC([N+](=O)[O-])=C2N(Cc3cnc(Cl)s3)CCCN12 [Compound 222] | 89% | 4% |  |  |
| CCCC(C)SC1CCC([N+](=O)[O-])=C2N(Cc3cnc(Cl)s3)CCN21 (stereo not drawn) [Compound 184] | 35% | 12% |  |  |
| O=[N+]([O-])C1=C2N(CC3CCOC3)CCCN2C(OCCCl)CC1 (stereo not drawn) [Compound 102] |  |  | 89% | 0% |
| CCCCOC1CCC([N+](=O)[O-])=C2N(Cc3cnc(Cl)s3)CCCN21 (stereo not drawn) [Compound 93] |  |  | 8% | 7% |
| O=[N+]([O-])C1=C2N(Cc3cnc(Cl)s3)CCN2C(O)CC1 (racemic) [Compound 23] |  |  | 100% | 87% |
| C#CCOC1CCC([N+](=O)[O-])=C2N(Cc3cnc(Cl)s3)CCN21 (stereo not drawn) [Compound 42] |  |  | 100% | 45% |
| O=C(OC1CCC([N+](=O)[O-])=C2N(Cc3ccc(Cl)nc3)CCN21)c1ccccc1 (stereo not drawn) [Compound 122] |  |  | 23% | 56% |
| CC(C)OC1CCC([N+](=O)[O-])=C2N(Cc3cnc(Cl)s3)CCN21 (racemic) [Compound 29] |  |  | 100% | 100% |
| CCCOC1CCC([N+](=O)[O-])=C2N(Cc3cnc(Cl)s3)CCN21 (racemic) [Compound 28] |  |  | 100% | 100% |
| CCC(C)OC1CCC([N+](=O)[O-])=C2N(Cc3cnc(Cl)s3)CCCN21 (stereo not drawn) [Compound 95] |  |  | 8% | 4% |
| COC1CCC([N+](=O)[O-])=C2N(Cc3cnc(Cl)s3)CCN21 (racemic) [Compound 24] |  |  | 100% | 100% |
| COC1CCC([N+](=O)[O-])=C2N(CC3CCOC3)CCCN21 (stereo not drawn) [Compound 100] |  |  | 8% | 3% |
| O=[N+]([O-])C1=C2N(Cc3cnc(Cl)s3)CCCN2C(OC(C(F)(F)F)C(F)(F)F)CC1 (stereo not drawn) [Compound 92] |  |  | 5% | 6% |
| COCCSC1CCC([N+](=O)[O-])=C2N(Cc3ccc(Cl)nc3)CCN21 (stereo not drawn) [Compound 148] |  |  | 89% | 67% |
| CCCCOC1CCC([N+](=O)[O-])=C2N(Cc3ccc(Cl)nc3)CCCN21 (stereo not drawn) [Compound 79] |  |  | 61% | 52% |
| O=[N+]([O-])C1=C2N(Cc3cnc(Cl)s3)CCCN2C(OCC(F)(F)F)CC1 (stereo not drawn) [Compound 89] |  |  | 100% | 100% |
| COC1CCC([N+](=O)[O-])=C2N(Cc3ccc(Cl)nc3)CCCN21 (stereo not drawn) [Compound 72] |  |  | 100% | 35% |
| CCCCN=C1CCC([N+](=O)[O-])=C2N(Cc3cnc(Cl)s3)CCN12 [Compound 216] | 98% | 66% |  |  |
